Patent US20230330120A1, “COMPOSITION FOR PREVENTING HAIR LOSS OR PROMOTING HAIR REGROWTH” (LG HOUSEHOLD & HEALTH CARE LTD., priority 2020, published 2023)
Read-outs that look alike come from different tables or passages of the source.

Tests used:
[1] = system: human-derived dermal papilla cells (DPCs); assay: Proliferation of dermal papilla cells (CCK-8); type: cell-based; details: for activity at 2 µg/mL / activity at 20 µg/mL: read-out: Proliferation of dermal papilla cells (%)
Experimental: The effect of promoting the proliferation of dermal papilla cells was investigated using human-derived dermal papilla cells (DPCs). The human-derived dermal papilla cells were purchased from PromoCell. The DPCs were cultured using a medium (follicle dermal papilla cell growth medium; PromoCell, Heidelberg, Germany) and a medium additive (supplement mix; PromoCell, Heidelberg, Germany) recommended by PromoCell under the condition of 37° C. and 5% CO2. The cultured DPCs were seeded onto a 96-well plate at 3,000 cells/well and then cultured for 24 hours under 0.1% serum condition. Then, the cultured cells were incubated for 1 day after treating with DMSO diluted with serum-free DMEM to 1:1000 (vehicle), 0.1 μg/mL minoxidil as a positive control group, or at 2 or 20 μg/mL valechlorine, tussilagone, periplocin, lysionotin, nitidine, lanosterol, engeletin, specnuezhenide, praeruptorin B, rotundic acid, sesamoside or polyphyllin VII. After the incubation, cell proliferation was evaluated by the CCK method. CCK-8 was treated to a medium at 1:10 and then incubated for 1 hour. 1 hour later, the absorbance of each well was measured at 450 nm. All experiments were repeated 3 times and the average of absorbance was calculated. The control group was set at 100%, and the results were represented as a percentage compared to the control group.

β-catenin [2] = assay: Expression of β-catenin protein in dermal papilla cells (SDS-PAGE / anti-β-catenin antibody); type: cell-based, human; details: for activity at 2 µg/mL / activity at 20 µg/mL: Homo sapiens, 24 h, read-out: Expression level of β-catenin protein (%)
Experimental: Human dermal papilla cells were seeded onto a 6-well plate at 500,000 cells/well and then incubated for 1 day after treating with 2 or 20 μg/mL valechlorine, tussilagone, periplocin, lysionotin, nitidine, lanosterol, engeletin, specnuezhenide, praeruptorin B, rotundic acid, sesamoside or polyphyllin VII. After the incubation, the cells were lysed using an M-PER lysis buffer and a cell lysate of the same volume was loaded on SDS-PAGE gel. After transferring the cell lysate loaded on the SDS-PAGE gel to a nitrocellulose membrane, proteins were detected by attaching anti-β-catenin antibodies to the nitrocellulose membrane. GAPDH was used as a control for calibrating the quantity of proteins. The amount of β-catenin increased by the valechlorine, tussilagone, periplocin, lysionotin, nitidine, lanosterol, engeletin, specnuezhenide, praeruptorin B, rotundic acid, sesamoside or polyphyllin VII was investigated. The control group was set at 100%, and the results were represented as a percentage compared to the control group as shown in Table 5.

β-catenin [3] = assay: as above; type: cell-based, human; details: 0.5 μg/mL (positive control); control group = 100%
[4] = Homo sapiens, 24 h, 2 μg/mL, 1 day, control group = 100%
[5] = Homo sapiens, 24 h, 20 μg/mL, 1 day, control group = 100%
[6] = 2 μg/mL, 1 day, control group = 100%, GAPDH calibration
[7] = 20 μg/mL, 1 day, control group = 100%, GAPDH calibration

Molecule	activity at 2 µg/mL [1, 4] [%]	activity at 20 µg/mL [1, 5] [%]	activity at 2 µg/mL (β-catenin [2]; [6]) [%]	activity at 20 µg/mL (β-catenin [2]; [7]) [%]	also measured
C=C1[C@H](OC(=O)/C=C(\C)CC)C[C@@H](C(C)C)[C@@H]2[C@@H]([C@H](C)OC(C)=O)C(=O)C[C@@H]12 [Tussilagone]	157	178	208	253	
COC(=O)C1=CO[C@@H](O[C@@H]2O[C@H](CO)[C@@H](O)[C@H](O)[C@H]2O)[C@@H]2[C@@]3(C)O[C@H]3[C@@H](O)[C@]12O [Sesamoside]	168	194	245	295	
COc1ccc(-c2cc(=O)c3c(O)c(OC)c(O)c(OC)c3o2)cc1 [Lysionotin]	164	179	210	232	
Engeletin					Proliferation of dermal papilla cells (%) ([1]; 2 μg/mL, 1 day, control group = 100%): 143.2%; Proliferation of dermal papilla cells (%) ([1]; 20 μg/mL, 1 day, control group = 100%): 188.1%; Expression level of β-catenin protein (%) (β-catenin [2]; [6]): 231.1%; Expression level of β-catenin protein (%) (β-catenin [2]; [7]): 276.3%
Nc1cc(N2CCCCC2)nc(N)[n+]1[O-] [Minoxidil, reference compound]					activity at 0.1 µg/mL ([1]; Homo sapiens, 24 h, 100 ng/ml (positive control), 1 day, control group = 100%): 130%
C/C=C1/[C@H](O[C@@H]2O[C@H](CO)[C@@H](O)[C@H](O)[C@H]2O)OC=C(C(=O)OC)[C@H]1CC(=O)OC[C@H]1O[C@@H](OCCc2ccc(O)cc2)[C@H](O)[C@@H](O)[C@@H]1O [Specnuezhenide]	150	170	216	289	
C[C@@H]1CC[C@]2(C(=O)O)CC[C@]3(C)C(=CC[C@@H]4[C@@]5(C)CC[C@H](O)[C@@](C)(CO)[C@@H]5CC[C@]43C)[C@@H]2[C@]1(C)O [Rotundic acid]	156	183	211	258	
C/C=C(\C)C(=O)OC1c2c(ccc3ccc(=O)oc23)OC(C)(C)C1OC(=O)/C(C)=C/C (stereo not drawn) [Praeruptorin B]					activity at 2 µg/mL ([1]; Homo sapiens, 24 h): 144%; activity at 20 µg/mL ([1]; Homo sapiens, 24 h): 173%; activity at 2 µg/mL (β-catenin [2]): 211%; activity at 20 µg/mL (β-catenin [2]): 250%
CC(C)=CCC[C@@H](C)[C@H]1CC[C@@]2(C)C3=C(CC[C@]12C)[C@@]1(C)CC[C@H](O)C(C)(C)[C@@H]1CC3 [Lanosterol]	143	189	241	246	
CC(=O)OCC1=CO[C@@H](OC(=O)CC(C)C)[C@H]2C1=C[C@H](OC(=O)CC(C)C)[C@]2(O)CCl [Valechlorine]					activity at 2 µg/mL ([1]; Homo sapiens, 24 h): 146%; activity at 20 µg/mL ([1]; Homo sapiens, 24 h): 159%; activity at 2 µg/mL (β-catenin [2]): 217%; activity at 20 µg/mL (β-catenin [2]): 234%
COc1cc2c[n+](C)c3c4cc5c(cc4ccc3c2cc1OC)OCO5 [Nitidine]	155	181	220	262	
Wnt3a: Wnt3a protein (positive control group) which binds directly to the receptor of Wnt/β-catenin (protein, UniProt P56704 19-352, looked up) Protein Wnt-3a: SYPIWWSLAVGPQYSSLGSQPILCASIPGLVPKQLRFCRNYVEIMPSVAEGIKIGIQECQHQFRGRRWNCTTVHDSLAIFGPVLDKATRESAFVHAIASAGVAFAVTRSCAEGTAAICGCSSRHQGSPGKGWKWGGCSEDIEFGGMVSREFADARENRPDARSAMNRHNNEAGRQAIASHMHLKCKCHGLSGSCEVKTCWWSQPDFRAIGDFLKDKYDSASEMVVEKHRESRGWVETLRPRYTYFKVPTERDLVYYEASPNFCEPNPETGSFGTRDRTCNVSSHGIDGCDLLCCGRGHNARAERRREKCRCVFHWCCYVSCQECTRVYDVHTCK					Expression level of β-catenin protein (%) (β-catenin [3]): 208.8%
